The text below walks through data of PubChem BioAssay (NCI).

Among the test systems are OVCAR-4 ovarian; EKVX NSCLC; UACC-257 melanoma; SK-MEL-2 melanoma; NCI-H460 lung; LOX IMVI melanoma; SF-539 CNS; COLO 205 colon; NCI-H226 lung; MDA-MB-231 breast.
Common to all, as to experiment: NCI tumour cell line growth inhibition, 48 h

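Following 48 hours of exposure in 96-well plates, responses at five concentrations were used to interpolate endpoints linearly. GI50 = concentration required for 50% inhibition of growth. The concentration for full growth arrest is given as TGI.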

For the compound `CCOC(=O)/C=C/C1=C(Br)[C@@]2(C)CC[C@@H]3c4ccc(O)cc4CC[C@H]3[C@@H]2C1`, the TGI in the assay with OVCAR-4 ovarian stood at 27.7 µM; in the assay with EKVX NSCLC, 30.7 µM; in the assay with UACC-257 melanoma, 26.8 µM; in the assay with SK-MEL-2 melanoma, 28.1 µM; with NCI-H460 lung it was 28.4 µM; in the assay with LOX IMVI melanoma, 19.6 µM. Besides, the TGI in the assay on SF-539 CNS came out at 30.7 µM; with COLO 205 colon, 32.2 µM; with NCI-H226 lung it was 30.2 µM.

With `CN(CCc1ccccn1)c1ccc2c(c1)Cc1ccccc1-2`, the TGI is 97.7 µM with OVCAR-4 ovarian; 62 µM with EKVX NSCLC; 92.2 µM in the assay with UACC-257 melanoma; > 100 µM with NCI-H460 lung; 21.9 µM in the assay with MDA-MB-231 breast; > 100 µM in the assay on LOX IMVI melanoma. Moreover, the results for the TGI in the assay on COLO 205 colon and in the assay on NCI-H226 lung were 41.4 µM and 40.5 µM, respectively.

As to `Clc1cccc(/C=c2\nc(-c3ccccc3)n3c2nc2ccccc23)c1`, the TGI with OVCAR-4 ovarian, with EKVX NSCLC, in the assay on UACC-257 melanoma, in the assay with SK-MEL-2 melanoma, in the assay with NCI-H460 lung and in the assay with MDA-MB-231 breast was > 100 µM each time. For the same compound, the TGI in the assay with LOX IMVI melanoma, with SF-539 CNS, in the assay with COLO 205 colon and in the assay on NCI-H226 lung was > 100 µM in each case.

Regarding `Cc1c2ccccc2cc2cccc[n+]12`, the TGI in the assay with EKVX NSCLC was 92.5 µM; with UACC-257 melanoma, 43.3 µM; in the assay with SK-MEL-2 melanoma, > 100 µM; in the assay with NCI-H460 lung, > 100 µM; in the assay with MDA-MB-231 breast, > 100 µM; in the assay on LOX IMVI melanoma it was > 100 µM. The TGI in the assay on SF-539 CNS and in the assay on COLO 205 colon was > 100 µM in each case.

In the case of `CCCCSCCC(N)P(=O)(O)O` (stereo not drawn), the TGI in the assay with OVCAR-4 ovarian, in the assay on UACC-257 melanoma, with SK-MEL-2 melanoma, in the assay with NCI-H460 lung, with MDA-MB-231 breast and in the assay with LOX IMVI melanoma was > 100 µM each time. In addition, the TGI in the assay on COLO 205 colon and in the assay with NCI-H226 lung was > 100 µM throughout.

Consider `Nc1ccc(Cc2ccc(N)c(C(=O)O)c2)cc1C(=O)O`, for which the TGI in the assay with OVCAR-4 ovarian, with EKVX NSCLC, in the assay with UACC-257 melanoma, with SK-MEL-2 melanoma, in the assay on NCI-H460 lung and in the assay on MDA-MB-231 breast was > 100 µM each time. The TGI in the assay with LOX IMVI melanoma, in the assay on SF-539 CNS, in the assay with COLO 205 colon and in the assay on NCI-H226 lung was > 100 µM in each case.

Take `COc1ccc(-n2nc(C(=O)c3ccccc3)c3nn4c(=O)cc(-c5ccccc5)nc4nc32)cc1`: the GI50 in the assay on OVCAR-4 ovarian is 30.5 µM; in the assay with EKVX NSCLC, 53.5 µM; in the assay with UACC-257 melanoma, 42.6 µM; in the assay with SK-MEL-2 melanoma, 45.8 µM; with NCI-H460 lung, 32.4 µM; in the assay with MDA-MB-231 breast, 28.7 µM. The GI50 in the assay on LOX IMVI melanoma was 34.5 µM; with SF-539 CNS, 41.8 µM; in the assay on COLO 205 colon, 29.1 µM; with NCI-H226 lung it was 98.1 µM. For the same compound, the TGI in the assay on OVCAR-4 ovarian, with EKVX NSCLC, in the assay with UACC-257 melanoma, in the assay with SK-MEL-2 melanoma, in the assay on NCI-H460 lung and in the assay with MDA-MB-231 breast was > 100 µM in each case. Besides, the TGI in the assay on LOX IMVI melanoma, in the assay with SF-539 CNS, in the assay with COLO 205 colon and with NCI-H226 lung was > 100 µM throughout.

For `Cc1ccc(S(=O)(=O)Nc2cc(=O)[nH]c3c2CCC3)cc1`, the TGI in the assay on OVCAR-4 ovarian, in the assay on EKVX NSCLC, in the assay with UACC-257 melanoma, in the assay on SK-MEL-2 melanoma, with NCI-H460 lung and with MDA-MB-231 breast was > 100 µM throughout. In addition, the TGI in the assay on LOX IMVI melanoma, with SF-539 CNS, in the assay with COLO 205 colon and with NCI-H226 lung was > 100 µM in each case.

Regarding `NC(N)=N/N=C/c1c(-c2cccs2)nc2n1CCS2`, the GI50 was 27.7 µM with EKVX NSCLC; 22.3 µM with UACC-257 melanoma; 43.3 µM in the assay on SK-MEL-2 melanoma; 18.7 µM in the assay with NCI-H460 lung; 13.7 µM in the assay with MDA-MB-231 breast; 19.2 µM in the assay on SF-539 CNS. Besides, the GI50 was 18.1 µM with COLO 205 colon and 15.9 µM in the assay on NCI-H226 lung. Besides, the TGI with EKVX NSCLC was 85.7 µM; with UACC-257 melanoma it was 44.8 µM; in the assay with SK-MEL-2 melanoma, > 100 µM; in the assay with NCI-H460 lung it was 40.6 µM; in the assay on MDA-MB-231 breast, 33.4 µM; in the assay with SF-539 CNS it was 33.3 µM. The results for the TGI in the assay with COLO 205 colon and in the assay with NCI-H226 lung were 40.4 µM and 31.8 µM, respectively.

In the case of `OC1CCSc2ccccc21` (stereo not drawn), the TGI in the assay with OVCAR-4 ovarian, in the assay on EKVX NSCLC, in the assay on SK-MEL-2 melanoma, in the assay on NCI-H460 lung, with LOX IMVI melanoma and with SF-539 CNS was > 100 µM in each case. Further, the TGI in the assay on COLO 205 colon and in the assay with NCI-H226 lung was > 100 µM each time.

As to `O=S(C(c1ccccc1)=P(c1ccccc1)(c1ccccc1)c1ccccc1)c1ccc(Cl)cc1` (stereo not drawn), the TGI in the assay with OVCAR-4 ovarian was 98.3 µM; with EKVX NSCLC, > 100 µM; with UACC-257 melanoma it was > 100 µM; with SK-MEL-2 melanoma it was 45.9 µM; with NCI-H460 lung it was > 100 µM; with MDA-MB-231 breast, 70 µM. For the same compound, the TGI in the assay with LOX IMVI melanoma, with SF-539 CNS and with NCI-H226 lung was > 100 µM in each case.

For `CS(=O)(=O)Nc1cccc(-c2ccc3ncnc(Nc4cncc(Cl)c4)c3c2)c1`, the GI50 is 4.16 µM with OVCAR-4 ovarian; 2.08 µM in the assay on UACC-257 melanoma; 2.64 µM in the assay on SK-MEL-2 melanoma; 3.18 µM in the assay on NCI-H460 lung; 2.06 µM in the assay with SF-539 CNS; 2.21 µM in the assay on NCI-H226 lung. Besides, the TGI with OVCAR-4 ovarian was > 100 µM; with UACC-257 melanoma, 4.82 µM; in the assay with SK-MEL-2 melanoma, 7.35 µM; with NCI-H460 lung it was > 100 µM; with SF-539 CNS it was 5.82 µM; in the assay with NCI-H226 lung, 8.23 µM.
